Assay results as given in PubChem BioAssay AID296 (DTP/NCI, 2004).
“And” between values parts separate entries of the source, which are not always exact repeats. Equal entries are not always repeated. Results filed as inconclusive are left out. *1 amine or outer side, *2 acyl side, *3 side chain or, on linkers, in order; H or OH if unused. Where a SMILES comes first, the peptide text is derived from it. Bridges are numbered along the chain shown (N, C = ends). Roman numbers before positions name the chains, in order. [ ]: non-standard residue; d: D form. The star is where a group is joined. Actinocin(1to9) = Cc1c2oc3c(C)ccc(C(=O)[*:2])c3nc-2c(C(=O)[*:1])c(N)c1=O; Trt = c1ccc(C(c2ccccc2)(c2ccccc2)*)cc1; NMeV = CN[CH](C(=O)O)C(C)C; Cbz = O=C(OCc1ccccc1)*; Aze = O=C(O)[CH]1CCN1; Bn = c1ccc(C*)cc1; βAla = NCCC(=O)O; Sar = CNCC(=O)O

Test system: MX-1 breast xenograft, nude mice, tumor weight T/C
Assay: NCI In Vivo Anticancer Drug Screen. Data for tumor model Human Mammary Carcinoma MX-1 Xenograft (intrarenal inoculation) in NU/NU Swiss (nude) mice
Conditions: endpoint: mean tumor weight change, higher = larger tumour
In short: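 Antitumour effect measured in vivo against vehicle controls, expressed as T/C.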

[1] = dose: 150.0 mg/kg/injection, schedule: Q04DX003 (sc), vehicle: Klucel (hydroxypropylcellulose) (HPC)
[2] = dose: 300.0 mg/kg/injection, schedule: Q04DX003 (sc), vehicle: Klucel (hydroxypropylcellulose) (HPC)
[3] = dose: 600.0 mg/kg/injection, schedule: Q04DX003 (sc), vehicle: Klucel (hydroxypropylcellulose) (HPC)
[4] = dose: 150.0 mg/kg/injection, schedule: Q04DX003 (ip), vehicle: saline
[5] = dose: 300.0 mg/kg/injection, schedule: Q04DX003 (ip), vehicle: saline
[6] = dose: 600.0 mg/kg/injection, schedule: Q04DX003 (ip), vehicle: saline
[7] = dose: 150.0 mg/kg/injection, schedule: Q04DX003 (sc), vehicle: saline with Tween-80
[8] = dose: 300.0 mg/kg/injection, schedule: Q04DX003 (sc), vehicle: saline with Tween-80
[9] = dose: 600.0 mg/kg/injection, schedule: Q04DX003 (sc), vehicle: saline with Tween-80
[10] = dose: 1200.0 mg/kg/injection, schedule: Q04DX003 (sc), vehicle: saline with Tween-80
[11] = dose: 1200.0 mg/kg/injection, schedule: Q04DX003 (sc), vehicle: Klucel (hydroxypropylcellulose) (HPC)
[12] = dose: 2400.0 mg/kg/injection, schedule: Q04DX003 (sc), vehicle: saline with Tween-80

Question: `Cc1c2oc3c(C)ccc(C(=O)NC4C(=O)NC(C(C)C)C(=O)N5CCCC5C(=O)N(C)CC(=O)N(C)C(C(C)C)C(=O)OC4C)c3nc-2c(C(=O)NC2C(=O)NC(C(C)C)C(=O)N3CCC3C(=O)N(C)CC(=O)N(C)C(C(C)C)C(=O)OC2C)c(N)c1=O` (stereo not given) (I: TV[Aze][Sar][NMeV] / II: TVP[Sar][NMeV]; ester I:1-I:C, II:1-II:C; linker I:N-II:N via Actinocin(1to9); configuration not given here) was tested. Which T/C (dose: 0.25 mg/kg/injection, schedule: Q04DX003 (sc), vehicle: saline + alcohol) did it give?
Answer: 53 % of control

Question: And the T/C (dose: 0.5 mg/kg/injection, schedule: Q04DX003 (sc), vehicle: saline + alcohol)?
Answer: 12 % of control

Question: What about the T/C (dose: 0.5 mg/kg/injection, schedule: Q04DX003 (sc), vehicle: saline) of the same compound?
Answer: 112 % of control

Question: What about the T/C (dose: 1.0 mg/kg/injection, schedule: Q04DX003 (sc), vehicle: saline + alcohol) of the same compound?
Answer: -80 % of control

Question: What about the T/C (dose: 1.0 mg/kg/injection, schedule: Q04DX003 (sc), vehicle: saline) of the same compound?
Answer: 47 % of control

Question: What about the T/C (dose: 2.0 mg/kg/injection, schedule: Q04DX003 (sc), vehicle: saline) of the same compound?
Answer: 40 % of control

Question: Which T/C (dose: 3.13 mg/kg/injection, schedule: Q01DX010 (sc), vehicle: other) does the source give for `CO[C@H]1C[C@](C)(O)Cc2cc3c(c(O)c21)C(=O)c1c(O)cc2c(c1C3=O)O[C@@H]1O[C@@]2(C)[C@H](O)[C@@H](N(C)C)[C@@H]1O` here?
Answer: 93 % of control

Question: And the T/C (dose: 6.25 mg/kg/injection, schedule: Q01DX010 (sc), vehicle: other)?
Answer: 82 % of control

Question: And the T/C (dose: 12.5 mg/kg/injection, schedule: Q01DX010 (sc), vehicle: other)?
Answer: 43 % of control

Question: Which results are given for `COC(=O)C(CSC(c1ccccc1)(c1ccccc1)c1ccccc1)NC(=O)C(CSCc1ccccc1)NC(=O)CCNC(=O)OCc1ccccc1` (stereo not given) ({Cbz-βAla}-Cys(Bn)-Cys(Trt)-OMe; configuration not given here)?
Answer: T/C (dose: 75.0 mg/kg/injection, schedule: Q04DX003 (sc), vehicle: Klucel (hydroxypropylcellulose) (HPC)): 99 % of control; T/C [1]: 49 % of control; T/C [2]: 63 % of control; T/C [3]: 60 % of control

Question: `CC1=CC2C(O)(CC(CO)=CC3C4C(C)(C)C4(OC(=O)c4ccccc4)C(OC(=O)c4ccccc4)C(C)C32O)C1=O` (stereo not given) was tested. Which T/C (dose: 2.5 mg/kg/injection, schedule: Q04DX003 (sc), vehicle: saline with Tween-80) did it give?
Answer: 83 % of control

Question: What about the T/C (dose: 5.0 mg/kg/injection, schedule: Q04DX003 (sc), vehicle: saline with Tween-80) of the same compound?
Answer: 70 % of control

Question: And the T/C (dose: 10.0 mg/kg/injection, schedule: Q04DX003 (sc), vehicle: saline with Tween-80)?
Answer: 90 % of control

Question: Which results are given for `CC1=NN(c2cccc(S(=O)(=O)O)c2)C(=O)C1N=Nc1cc(Cl)cc(S(=O)(=O)O)c1O.CC1=NN(c2cccc(S(=O)(=O)O)c2)C(=O)C1N=Nc1cc(Cl)cc(S(=O)(=O)O)c1O.[Cr]` (stereo not given)?
Answer: T/C [4]: 151 % of control; T/C [5]: 94 % of control; T/C [6]: 50 % of control

Question: Which T/C [7] does the source give for `COc1ccc(OC)c(/C=C/c2ccnc3ccccc23)c1` here?
Answer: 96 % of control

Question: What about the T/C [8] of the same compound?
Answer: 91 % of control

Question: What about the T/C [9] of the same compound?
Answer: 96 % of control

Question: What about the T/C [10] of the same compound?
Answer: 96 % of control

Question: What does the source list for `NC(=O)CC(N)C(=O)O` (stereo not given)?
Answer: T/C (dose: 1600.0 mg/kg/injection, schedule: Q04DX003 (sc), vehicle: saline): 88 % of control; T/C (dose: 3200.0 mg/kg/injection, schedule: Q04DX003 (sc), vehicle: saline): 68 % of control; T/C (dose: 6400.0 mg/kg/injection, schedule: Q04DX003 (sc), vehicle: saline): 90 % of control

Question: `CC1(C)OCC2OC=CC(=O)C2O1` (stereo not given) was tested. Which T/C [7] did it give?
Answer: 79 % of control

Question: What about the T/C [8] of the same compound?
Answer: 73 % of control

Question: What about the T/C [9] of the same compound?
Answer: 112 % of control

Question: How did the T/C (dose: 10.0 mg/kg/injection, schedule: Q01DX010 (sc), vehicle: saline) turn out when `O=c1[nH]cc(F)c(=O)[nH]1` was run?
Answer: 67 % of control and 90 % of control

Question: What about the T/C (dose: 50.0 mg/kg/injection, schedule: Q04DX003 (sc), vehicle: saline) of the same compound?
Answer: 44 % of control and 54 % of control and 55 % of control

Question: And the T/C (dose: 100.0 mg/kg/injection, schedule: Q04DX003 (sc), vehicle: saline)?
Answer: 13 % of control

Question: With `NCc1cc(O)c(O)c(O)c1` as the compound, how does the T/C [4] read?
Answer: 115 % of control

Question: What about the T/C [5] of the same compound?
Answer: 91 % of control

Question: And the T/C [6]?
Answer: 88 % of control

Question: How did the T/C (dose: 300.0 mg/kg/injection, schedule: Q04DX003 (sc), vehicle: dextrose) turn out when `CC(C)[NH-].CC(C)[NH-].[Cl][Pt+2][Cl]` was run?
Answer: 35 % of control

Question: With `COC1/C=C\C=C(/C)C(=O)NC2=CC(=O)C=C(C2=O)C(OC)C(C)CC(OC)C(OC)C(C)/C=C(/C)C1OC(N)=O` (stereo not given) as the compound, how does the T/C (dose: 2.25 mg/kg/injection, schedule: Q04DX003 (sc), vehicle: Klucel (hydroxypropylcellulose) (HPC)) read?
Answer: 77 % of control

Question: And the T/C (dose: 4.5 mg/kg/injection, schedule: Q04DX003 (sc), vehicle: Klucel (hydroxypropylcellulose) (HPC))?
Answer: 63 % of control

Question: What about the T/C (dose: 9.0 mg/kg/injection, schedule: Q04DX003 (sc), vehicle: Klucel (hydroxypropylcellulose) (HPC)) of the same compound?
Answer: 52 % of control

Question: For `CCC[P+](c1ccccc1)(c1ccccc1)c1ccccc1`, which T/C (dose: 18.75 mg/kg/injection, schedule: Q04DX003 (sc), vehicle: saline with Tween-80) is on record?
Answer: 100 % of control

Question: What about the T/C (dose: 37.5 mg/kg/injection, schedule: Q04DX003 (sc), vehicle: saline with Tween-80) of the same compound?
Answer: 73 % of control

Question: And the T/C (dose: 75.0 mg/kg/injection, schedule: Q04DX003 (sc), vehicle: saline with Tween-80)?
Answer: 62 % of control

Question: And the T/C [7]?
Answer: 54 % of control

Question: For `C[C@]12CC[C@@H]3c4ccc(O)cc4CC[C@H]3[C@@H]1CC[C@@H]2O`, which T/C [1] is on record?
Answer: 101 % of control

Question: And the T/C [2]?
Answer: 101 % of control

Question: And the T/C [3]?
Answer: 101 % of control

Question: And the T/C [11]?
Answer: 104 % of control

Question: How did the T/C (dose: 12.5 mg/kg/injection, schedule: Q01DX010 (sc), vehicle: saline with Tween-80) turn out when `CCNC(=O)OCc1c(COC(=O)NCC)c(-c2ccc(Cl)c(Cl)c2)n2c1CCC2` was run?
Answer: 46 % of control

Question: What about the T/C (dose: 25.0 mg/kg/injection, schedule: Q01DX010 (sc), vehicle: saline with Tween-80) of the same compound?
Answer: 10 % of control

Question: And the T/C (dose: 50.0 mg/kg/injection, schedule: Q01DX010 (sc), vehicle: saline with Tween-80)?
Answer: 3 % of control and 8 % of control

Question: What about the T/C (dose: 100.0 mg/kg/injection, schedule: Q01DX010 (sc), vehicle: saline with Tween-80) of the same compound?
Answer: 4 % of control

Question: What does the source list for `CC(=O)C(=O)O.CC(=O)C(=O)O.[NH-]C1CCCCC1[NH-].[Pt+2]` (stereo not given)?
Answer: T/C (dose: 6.25 mg/kg/injection, schedule: Q04DX003 (ip), vehicle: other): 46 % of control; T/C (dose: 12.5 mg/kg/injection, schedule: Q04DX003 (ip), vehicle: other): 74 % of control; T/C (dose: 25.0 mg/kg/injection, schedule: Q04DX003 (ip), vehicle: other): 45 % of control; T/C (dose: 50.0 mg/kg/injection, schedule: Q04DX003 (ip), vehicle: other): 12 % of control; T/C (dose: 100.0 mg/kg/injection, schedule: Q04DX003 (ip), vehicle: other): 9 % of control

Question: Which T/C [8] does the source give for `COc1ccc(C(=O)c2no[n+]([O-])c2C(=O)c2ccc(OC)cc2)cc1` here?
Answer: 121 % of control

Question: And the T/C [9]?
Answer: 91 % of control

Question: And the T/C [10]?
Answer: 66 % of control

Question: What about the T/C [12] of the same compound?
Answer: 88 % of control

Question: What does the source list for `CCC[CH2][Hg][Cl]`?
Answer: T/C (dose: 9.38 mg/kg/injection, schedule: Q04DX003 (sc), vehicle: Klucel (hydroxypropylcellulose) (HPC)): 74 % of control; T/C (dose: 18.75 mg/kg/injection, schedule: Q04DX003 (sc), vehicle: Klucel (hydroxypropylcellulose) (HPC)): 61 % of control; T/C (dose: 37.5 mg/kg/injection, schedule: Q04DX003 (sc), vehicle: Klucel (hydroxypropylcellulose) (HPC)): 46 % of control

Question: `NC(=O)c1ncn(C2OC(CO)C(O)C2O)c1O` (stereo not given) was tested. Which T/C [2] did it give?
Answer: 73 % of control

Question: What about the T/C [3] of the same compound?
Answer: 95 % of control

Question: And the T/C [11]?
Answer: 98 % of control

Question: Which results are given for `Nc1nc(=O)n(C2OC(CO)C(O)C2O)cc1F` (stereo not given)?
Answer: T/C [8]: 103 % of control; T/C [9]: 77 % of control; T/C [10]: 81 % of control; T/C [12]: 32 % of control
